{"source": "the supplement of paper PMC10307832", "data": [{"compound": "CCn1c(-c2nonc2N)nc2c(C#CC(C)(C)O)ncc(OC[C@H]3CCCNC3)c21 + CS(=O)(=O)N1CCN(Cc2cc3nc(-c4cccc5[nH]ncc45)nc(N4CCOCC4)c3s2)CC1 [Pictilisib] (partner 1 µM)", "assay": "relative viability (nuclei count vs DMSO), 5 days (fraction); higher = more cells survive", "details": "first compound 1 µM", "how_it_was_run": "(§1)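 Relative viability equals treated-well nuclei counts divided by vehicle-well nuclei counts. Counts came from 4× images of lung cancer cell lines grown in 1536-well plates for 5 days after pin-tool dosing on the day after seeding. Dosing used one drug alone or a fixed anchor-drug dose plus five library-drug doses (not always all listed) in √10 steps, and values are medians of duplicate plates.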", "values": [{"cell line": "NCI-H520", "relative viability": 0.272}, {"cell line": "NCI-H2126", "relative viability": 0.449}, {"cell line": "EMC-BAC-2", "relative viability": 0.528}, {"cell line": "NCI-H2085", "relative viability": 0.462}, {"cell line": "Calu-6", "relative viability": 0.909}, {"cell line": "HCC-366", "relative viability": 0.218}, {"cell line": "NCI-H1666", "relative viability": 0.392}, {"cell line": "NCI-H596", "relative viability": 0.436}, {"cell line": "LK-2", "relative viability": 0.729}, {"cell line": "NCI-H2087", "relative viability": 0.894}, {"cell line": "SK-MES-1", "relative viability": 0.314}, {"cell line": "H3255", "relative viability": 0.486}, {"cell line": "COR-L23", "relative viability": 0.674}, {"cell line": "COR-L 105", "relative viability": 0.379}, {"cell line": "IA-LM", "relative viability": 0.168}, {"cell line": "LOU-NH91", "relative viability": 0.526}, {"cell line": "ChaGo-K-1", "relative viability": 0.839}, {"cell line": "NCI-H2170", "relative viability": 0.281}, {"cell line": "NCI-H2405", "relative viability": 0.406}, {"cell line": "HOP-62", "relative viability": 0.794}, {"cell line": "HCC-44", "relative viability": 0.556}, {"cell line": "A549", "relative viability": 0.361}, {"cell line": "NCI-H2009", "relative viability": 0.752}, {"cell line": "NCI-H661", "relative viability": 0.401}, {"cell line": "SK-LU-1", "relative viability": 0.617}, {"cell line": "NCI-H1299", "relative viability": 0.753}, {"cell line": "CAL-12T", "relative viability": 0.329}, {"cell line": "NCI-H2228", "relative viability": 0.294}, {"cell line": "NCI-H2023", "relative viability": 0.236}, {"cell line": "NCI-H1563", "relative viability": 0.633}]}, {"compound": "CCOC1=CC=CC=C1N=NC2=C(NN(C2=O)C3=NC(=CS3)C4=CC=CC=C4)C [BAM7] + O=C(c1cc(Cc2n[nH]c(=O)c3ccccc23)ccc1F)N1CCN(C(=O)C2CC2)CC1 [Olaparib] (partner 8 µM)", "assay": "relative viability (nuclei count vs DMSO), 5 days (fraction); higher = more cells survive", "details": "first compound 0.5 µM", "how_it_was_run": "as §1", "values": [{"cell line": "NCI-H522", "relative viability": 0.725}, {"cell line": "NCI-H727", "relative viability": 0.707}, {"cell line": "NCI-H1650", "relative viability": 0.734}, {"cell line": "EBC-1", "relative viability": 0.712}, {"cell line": "NCI-H1703", "relative viability": 0.497}, {"cell line": "NCI-H1993", "relative viability": 0.955}, {"cell line": "SW 1573", "relative viability": 0.574}, {"cell line": "NCI-H838", "relative viability": 0.876}, {"cell line": "LCLC-103H", "relative viability": 0.77}, {"cell line": "NCI-H520", "relative viability": 0.401}, {"cell line": "NCI-H2126", "relative viability": 0.892}, {"cell line": "EMC-BAC-2", "relative viability": 0.485}, {"cell line": "NCI-H2085", "relative viability": 0.83}, {"cell line": "Calu-6", "relative viability": 0.552}, {"cell line": "HCC-366", "relative viability": 0.328}, {"cell line": "NCI-H1666", "relative viability": 0.818}, {"cell line": "NCI-H596", "relative viability": 0.665}, {"cell line": "LK-2", "relative viability": 0.885}, {"cell line": "NCI-H2087", "relative viability": 0.683}, {"cell line": "NCI-H2342", "relative viability": 0.49}, {"cell line": "SK-MES-1", "relative viability": 0.82}, {"cell line": "H3255", "relative viability": 0.597}, {"cell line": "COR-L23", "relative viability": 0.379}, {"cell line": "COR-L 105", "relative viability": 0.806}, {"cell line": "IA-LM", "relative viability": 0.912}, {"cell line": "LOU-NH91", "relative viability": 0.949}, {"cell line": "ChaGo-K-1", "relative viability": 0.377}, {"cell line": "NCI-H2170", "relative viability": 0.497}, {"cell line": "NCI-H2405", "relative viability": 0.936}, {"cell line": "HOP-62", "relative viability": 0.517}, {"cell line": "HCC-44", "relative viability": 0.986}, {"cell line": "A549", "relative viability": 0.323}, {"cell line": "NCI-H1648", "relative viability": 0.772}, {"cell line": "NCI-H2009", "relative viability": 0.716}, {"cell line": "NCI-H661", "relative viability": 0.796}, {"cell line": "SK-LU-1", "relative viability": 0.463}, {"cell line": "NCI-H1299", "relative viability": 0.961}, {"cell line": "CAL-12T", "relative viability": 0.764}, {"cell line": "NCI-H2228", "relative viability": 0.802}, {"cell line": "NCI-H2023", "relative viability": 0.475}]}, {"compound": "CCOC1=CC=CC=C1N=NC2=C(NN(C2=O)C3=NC(=CS3)C4=CC=CC=C4)C [BAM7] + O=C(c1cc(Cc2n[nH]c(=O)c3ccccc23)ccc1F)N1CCN(C(=O)C2CC2)CC1 [Olaparib] (partner 8 µM)", "assay": "relative viability (nuclei count vs DMSO), 5 days (fraction); higher = more cells survive", "details": "first compound 5 µM", "how_it_was_run": "as §1", "values": [{"cell line": "NCI-H522", "relative viability": 0.585}, {"cell line": "NCI-H727", "relative viability": 0.58}, {"cell line": "NCI-H1650", "relative viability": 0.729}, {"cell line": "EBC-1", "relative viability": 0.644}, {"cell line": "NCI-H1703", "relative viability": 0.454}, {"cell line": "NCI-H1993", "relative viability": 1.08}, {"cell line": "SW 1573", "relative viability": 0.583}, {"cell line": "NCI-H838", "relative viability": 0.776}, {"cell line": "LCLC-103H", "relative viability": 0.795}, {"cell line": "NCI-H520", "relative viability": 0.432}, {"cell line": "NCI-H2126", "relative viability": 0.877}, {"cell line": "EMC-BAC-2", "relative viability": 0.476}, {"cell line": "NCI-H2085", "relative viability": 0.804}, {"cell line": "Calu-6", "relative viability": 0.598}, {"cell line": "HCC-366", "relative viability": 0.263}, {"cell line": "NCI-H1666", "relative viability": 0.727}, {"cell line": "NCI-H596", "relative viability": 0.625}, {"cell line": "LK-2", "relative viability": 0.891}, {"cell line": "NCI-H2087", "relative viability": 0.685}, {"cell line": "NCI-H2342", "relative viability": 0.46}, {"cell line": "SK-MES-1", "relative viability": 0.703}, {"cell line": "H3255", "relative viability": 0.666}, {"cell line": "COR-L23", "relative viability": 0.343}, {"cell line": "COR-L 105", "relative viability": 0.746}, {"cell line": "IA-LM", "relative viability": 0.794}, {"cell line": "LOU-NH91", "relative viability": 0.955}, {"cell line": "ChaGo-K-1", "relative viability": 0.377}, {"cell line": "NCI-H2170", "relative viability": 0.447}, {"cell line": "NCI-H2405", "relative viability": 0.936}, {"cell line": "HOP-62", "relative viability": 0.33}, {"cell line": "HCC-44", "relative viability": 0.952}, {"cell line": "A549", "relative viability": 0.319}, {"cell line": "SW 900", "relative viability": 0.847}, {"cell line": "NCI-H1648", "relative viability": 0.799}, {"cell line": "NCI-H2009", "relative viability": 0.727}, {"cell line": "NCI-H661", "relative viability": 0.855}, {"cell line": "SK-LU-1", "relative viability": 0.542}, {"cell line": "NCI-H1299", "relative viability": 1.02}, {"cell line": "CAL-12T", "relative viability": 0.653}, {"cell line": "NCI-H2228", "relative viability": 0.932}, {"cell line": "NCI-H2023", "relative viability": 0.45}]}, {"compound": "CCOC1=CC=CC=C1N=NC2=C(NN(C2=O)C3=NC(=CS3)C4=CC=CC=C4)C [BAM7] + O=C(c1cc(Cc2n[nH]c(=O)c3ccccc23)ccc1F)N1CCN(C(=O)C2CC2)CC1 [Olaparib] (partner 8 µM)", "assay": "relative viability (nuclei count vs DMSO), 5 days (fraction); higher = more cells survive", "details": "first compound 15.81 µM", "how_it_was_run": "as §1", "values": [{"cell line": "NCI-H522", "relative viability": 0.61}, {"cell line": "NCI-H727", "relative viability": 0.522}, {"cell line": "NCI-H1650", "relative viability": 0.737}, {"cell line": "EBC-1", "relative viability": 0.626}, {"cell line": "NCI-H1703", "relative viability": 0.357}, {"cell line": "NCI-H1993", "relative viability": 0.888}, {"cell line": "SW 1573", "relative viability": 0.461}, {"cell line": "NCI-H838", "relative viability": 0.797}, {"cell line": "LCLC-103H", "relative viability": 0.72}, {"cell line": "NCI-H520", "relative viability": 0.342}, {"cell line": "NCI-H2126", "relative viability": 0.905}, {"cell line": "EMC-BAC-2", "relative viability": 0.469}, {"cell line": "NCI-H2085", "relative viability": 0.785}, {"cell line": "Calu-6", "relative viability": 0.53}, {"cell line": "HCC-366", "relative viability": 0.226}, {"cell line": "NCI-H1666", "relative viability": 0.752}, {"cell line": "NCI-H596", "relative viability": 0.636}, {"cell line": "LK-2", "relative viability": 0.918}, {"cell line": "NCI-H2087", "relative viability": 0.559}, {"cell line": "NCI-H2342", "relative viability": 0.347}, {"cell line": "SK-MES-1", "relative viability": 0.613}, {"cell line": "H3255", "relative viability": 0.417}, {"cell line": "COR-L23", "relative viability": 0.332}, {"cell line": "COR-L 105", "relative viability": 0.665}, {"cell line": "IA-LM", "relative viability": 0.797}, {"cell line": "LOU-NH91", "relative viability": 0.894}, {"cell line": "ChaGo-K-1", "relative viability": 0.292}, {"cell line": "NCI-H2170", "relative viability": 0.439}, {"cell line": "NCI-H2405", "relative viability": 0.889}, {"cell line": "HOP-62", "relative viability": 0.449}, {"cell line": "HCC-44", "relative viability": 0.883}, {"cell line": "A549", "relative viability": 0.432}, {"cell line": "NCI-H1648", "relative viability": 0.322}, {"cell line": "NCI-H2009", "relative viability": 0.662}, {"cell line": "NCI-H661", "relative viability": 0.716}, {"cell line": "SK-LU-1", "relative viability": 0.444}, {"cell line": "NCI-H1299", "relative viability": 0.981}, {"cell line": "CAL-12T", "relative viability": 0.652}, {"cell line": "NCI-H2228", "relative viability": 0.547}, {"cell line": "NCI-H2023", "relative viability": 0.363}]}, {"compound": "CCOC1=CC=CC=C1N=NC2=C(NN(C2=O)C3=NC(=CS3)C4=CC=CC=C4)C [BAM7] + O=C(c1cc(Cc2n[nH]c(=O)c3ccccc23)ccc1F)N1CCN(C(=O)C2CC2)CC1 [Olaparib] (partner 8 µM)", "assay": "relative viability (nuclei count vs DMSO), 5 days (fraction); higher = more cells survive", "details": "first compound 50 µM", "how_it_was_run": "as §1", "values": [{"cell line": "NCI-H522", "relative viability": 0.643}, {"cell line": "NCI-H727", "relative viability": 0.573}, {"cell line": "NCI-H1650", "relative viability": 0.737}, {"cell line": "EBC-1", "relative viability": 0.763}, {"cell line": "NCI-H1703", "relative viability": 0.62}, {"cell line": "NCI-H1993", "relative viability": 0.98}, {"cell line": "SW 1573", "relative viability": 0.46}, {"cell line": "NCI-H838", "relative viability": 0.758}, {"cell line": "LCLC-103H", "relative viability": 0.686}]}]}
